Laboratory results published in ChEMBL document CHEMBL5029166, “Development of BET inhibitors as potential treatments for cancer: A new carboline chemotype” (Bioorg Med Chem Lett, 2021).
In brackets after ≈: the same amount, converted by molar mass.

Key:
[1] = AUC in mouse at 3 mg/kg, po measured after 24 hrs; assay type: ADME, organism-based; design: route oral, dose 3 mg/kg, time 24 hrs; conditions: in vivo
[2] = Antiproliferative activity against human JJN-3R cells assessed as reduction in cell viability; assay type: functional, cell-based
[3] = Metabolic stability in mouse liver microsomes assessed as half life measured upto 120 mins; assay type: ADME, Microsome
[4] = target: Bromodomain-containing protein 4 (Homo sapiens, UniProt O60885); assay: Inhibition of BRD4 (unknown origin)
[5] = Metabolic stability in dog liver microsomes assessed as half life measured upto 120 mins; assay type: ADME, Canis lupus familiaris, Microsome
[6] = Metabolic stability in human liver microsomes assessed as half life measured upto 120 mins; assay type: ADME, Microsome
[7] = Metabolic stability in rat liver microsomes assessed as half life measured upto 120 mins; assay type: ADME, Microsome
[8] = Metabolic stability in monkey liver microsomes assessed as half life measured upto 120 mins; assay type: ADME, Microsome; conditions: macaca
[9] = Anticancer activity against human TNBC cancer tissue xenografted PDTX mouse model assessed as tumor growth inhibition at 4 mg/kg, po treated 5-day on/2-day off regimen for 2 weeks after 27 days of tumor implantation; assay type: functional; conditions: Breast carcinoma cell, 336 h, read-out: TGI
[10] = Anticancer activity against human TNBC cancer tissue xenografted PDTX po dosed mouse model assessed as growth inhibition treated 5-day on/2-day off regimen for 2 weeks after 27 days of tumor implantation; assay type: functional; conditions: Breast carcinoma cell, 336 h, read-out: MED
[11] = Permeability of the compound by PAMPA; assay type: ADME; conditions: read-out: permeability
[12] = Metabolic stability in rat liver microsomes assessed as compound remaining; assay type: ADME, Microsome
[13] = Metabolic stability in mouse liver microsomes assessed as compound remaining; assay type: ADME, Microsome
[14] = Metabolic stability in human liver microsomes assessed as compound remaining; assay type: ADME, Microsome
[15] = Solubility of the compound in pH 6.5 phosphate buffer; assay type: physicochemical

**Q.** Which AUC at 24 h [1] does the source give for `Cc1sc2c(c1C)C(c1ccc(Cl)cc1)=N[C@@H](CC(=O)OC(C)(C)C)c1nnc(C)n1-2` here?
**A.** The AUC at 24 h was 7.4 µM·h.

**Q.** For `[2H]C([2H])([2H])c1nnn(C)c1-c1cc2c(cc1Cl)c1ncc(C(C)(C)O)cc1n2[C@H](c1ccccc1)C1CCOCC1`, which IC50 [2] is on record?
**A.** Its IC50 is 260 nM.

**Q.** Which results are given for `[2H]C([2H])([2H])c1nnn(C)c1-c1cc2c(cc1F)c1ncc(C(C)(C)O)cc1n2[C@@H](CCC)c1ncccc1F`?
**A.** half-life [3]: 53 min; IC50 [4]: 0.5 nM; half-life [5]: 14 min; half-life [6]: 74 min; half-life [7]: 37 min; half-life [8]: 36 min; IC50 [2]: 2.4 nM

**Q.** For `[2H]C([2H])([2H])c1nnn(C)c1-c1cc2c(cn1)c1ncc(C(C)(C)O)cc1n2[C@H](c1ccccc1)C1CCOCC1`, which half-life [3] is on record?
**A.** Its half-life is 120 min.

**Q.** What about the half-life [5] of the same compound?
**A.** The half-life was 120 min.

**Q.** What about the half-life [6] of the same compound?
**A.** Its half-life is 120 min.

**Q.** And the half-life [7]?
**A.** Its half-life is 46 min.

**Q.** What about the half-life [8] of the same compound?
**A.** Its half-life is 92 min.

**Q.** What about the IC50 [2] of the same compound?
**A.** Its IC50 is 22 nM.

**Q.** For `[2H]C([2H])([2H])c1nnn(C)c1-c1cc2c(cc1F)c1ncc(C(C)(C)O)cc1n2[C@H](c1ncccc1F)C1CCOCC1`, which half-life [3] is on record?
**A.** Its half-life is 32 min.

**Q.** And the IC50 [4]?
**A.** The IC50 was 0.6 nM.

**Q.** And the inhibition in vivo at 4 mg/kg [9]?
**A.** The inhibition in vivo at 4 mg/kg was 76%.

**Q.** And the half-life [5]?
**A.** The half-life was 22 min.

**Q.** And the minimal effective dose [10]?
**A.** Its minimal effective dose is 4 mg/kg.

**Q.** What about the half-life [6] of the same compound?
**A.** Its half-life is 95 min.

**Q.** And the Papp [11]?
**A.** Its Papp is 55 ×10⁻⁶ cm/s.

**Q.** What about the half-life [7] of the same compound?
**A.** Its half-life is 87 min.

**Q.** And the half-life [8]?
**A.** The half-life was 21 min.

**Q.** And the IC50 [2]?
**A.** The IC50 was 5.3 nM.

**Q.** What about the AUC at 24 h [1] of the same compound?
**A.** Its AUC at 24 h is 11.1 µM·h.

**Q.** Which Stability [12] does the source give for `Cc1nnn(C)c1-c1ccc2c3ncc(C(C)(C)O)cc3n([C@H](c3ccccc3)C3CCOCC3)c2c1F` here?
**A.** The Stability was 3%.

**Q.** And the Stability [13]?
**A.** Its Stability is 72%.

**Q.** What about the IC50 [4] of the same compound?
**A.** Its IC50 is 4 nM.

**Q.** And the IC50 [2]?
**A.** The IC50 was 4.5 nM.

**Q.** And the Stability [14]?
**A.** Its Stability is 7%.

**Q.** Which half-life [3] does the source give for `Cc1nnn(C)c1-c1cc2c(cc1F)c1ncc(C(C)(C)O)cc1n2[C@H](c1ccccc1)C1CCOCC1` here?
**A.** Its half-life is 21 min.

**Q.** What about the IC50 [4] of the same compound?
**A.** Its IC50 is 1.3 nM.

**Q.** What about the half-life [5] of the same compound?
**A.** The half-life was 22 min.

**Q.** What about the half-life [6] of the same compound?
**A.** Its half-life is 25 min.

**Q.** What about the half-life [7] of the same compound?
**A.** The half-life was 7 min.

**Q.** And the half-life [8]?
**A.** The half-life was 9 min.

**Q.** What about the IC50 [2] of the same compound?
**A.** The IC50 was 6.2 nM.

**Q.** With `Cc1nnn(C)c1-c1ccc2c3ncc(C(C)(C)O)cc3n([C@H](c3ccccc3)C3CCOCC3)c2c1` as the compound, how does the half-life [3] read?
**A.** Its half-life is 11 min.

**Q.** What about the IC50 [4] of the same compound?
**A.** The IC50 was 0.6 nM.

**Q.** What about the half-life [5] of the same compound?
**A.** The half-life was 15 min.

**Q.** And the half-life [6]?
**A.** The half-life was 7 min.

**Q.** And the half-life [7]?
**A.** The half-life was 3 min.

**Q.** And the half-life [8]?
**A.** Its half-life is 4 min.

**Q.** And the IC50 [2]?
**A.** Its IC50 is 1.8 nM.

**Q.** Which half-life [3] does the source give for `[2H]C([2H])([2H])c1nnn(C)c1-c1cc2c(cc1F)c1ncc(C(C)(C)O)cc1n2[C@H](c1cc(C)on1)C1CCOCC1` here?
**A.** The half-life was 31 min.

**Q.** And the IC50 [4]?
**A.** The IC50 was 0.6 nM.

**Q.** What about the half-life [5] of the same compound?
**A.** The half-life was 53 min.

**Q.** What about the half-life [6] of the same compound?
**A.** Its half-life is 61 min.

**Q.** What about the Papp [11] of the same compound?
**A.** The Papp was 30 ×10⁻⁶ cm/s.

**Q.** What about the half-life [7] of the same compound?
**A.** The half-life was 1 min.

**Q.** What about the half-life [8] of the same compound?
**A.** Its half-life is 12 min.

**Q.** And the IC50 [2]?
**A.** Its IC50 is 12 nM.

**Q.** Which results are given for `Cc1nnn(C)c1-c1cc(F)c2c3ncc(C(C)(C)O)cc3n([C@H](c3ccccc3)C3CCOCC3)c2c1`?
**A.** half-life [3]: 26 min; IC50 [4]: 0.7 nM; half-life [5]: 29 min; half-life [6]: 9 min; half-life [7]: 10 min; half-life [8]: 5 min; IC50 [2]: 51 nM

**Q.** Which results are given for `[2H]C([2H])([2H])c1nnn(C)c1-c1cc2c(cc1F)c1ncc(C(C)(C)O)cc1n2[C@H](c1ccccc1)C1CCOCC1`?
**A.** solubility [15]: 13 µg/mL (≈ 25.2 µM); half-life [3]: 46 min; IC50 [4]: 0.4 nM; half-life [5]: 46 min; half-life [6]: 54 min; Papp [11]: 84 ×10⁻⁶ cm/s; half-life [7]: 9 min; half-life [8]: 14 min; IC50 [2]: 7.6 nM; AUC at 24 h [1]: 10 µM·h

**Q.** Which half-life [3] does the source give for `Cc1nnn(C)c1-c1cnc2c3ccc(C(C)(C)O)cc3n([C@H](c3ccccc3)C3CCOCC3)c2c1` [EZOBRESIB] here?
**A.** Its half-life is 23 min.

**Q.** What about the IC50 [4] of the same compound?
**A.** Its IC50 is 0.8 nM.

**Q.** What about the half-life [5] of the same compound?
**A.** Its half-life is 20 min.

**Q.** And the half-life [6]?
**A.** The half-life was 36 min.

**Q.** What about the half-life [7] of the same compound?
**A.** The half-life was 40 min.

**Q.** What about the half-life [8] of the same compound?
**A.** Its half-life is 11 min.

**Q.** What about the IC50 [2] of the same compound?
**A.** The IC50 was 3.6 nM.
